Test results from patent publication US20180161276A1, “TEMPERATURE-RESPONSIVE COMPOSITION, METHOD FOR FABRICATING, AND USE THEREOF” (NATIONAL TSING HUA UNIVERSITY, priority 2016, published 2018).

Target: hemoglobin (Hb) (Homo sapiens, UniProt P68871+P69905)
Test: Anti-degradation ability of produced nitric oxide in the presence of hemoglobin
Format: physicochemical
Conditions: in the presence of hemoglobin compared to absence of hemoglobin
Source text: As mentioned above, the half-life of nitric oxide is quite short due to the reaction between nitric oxide and erythrocyte in plasma or ceruloplasmin. Please refer to FIG. 6A and FIG. 6B.
However, the half-life of nitric oxide, which is produced by using the temperature-responsive composition of the 1st embodiment in the present disclosure in the presence of hemoglobin, only has a degradation of 40% as shown in FIG. 6B. That is, it proves that applying the temperature-responsive composition of the present disclosure can extend the half-life of the produced nitric oxide.

hemoglobin (Hb), sequence (P69905 2-142 limits assumed): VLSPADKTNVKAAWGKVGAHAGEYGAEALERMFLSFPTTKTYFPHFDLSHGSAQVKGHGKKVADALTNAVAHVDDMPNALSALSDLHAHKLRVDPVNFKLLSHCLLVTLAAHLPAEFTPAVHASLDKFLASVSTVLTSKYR
hemoglobin (Hb), sequence (P68871 2-147 limits assumed): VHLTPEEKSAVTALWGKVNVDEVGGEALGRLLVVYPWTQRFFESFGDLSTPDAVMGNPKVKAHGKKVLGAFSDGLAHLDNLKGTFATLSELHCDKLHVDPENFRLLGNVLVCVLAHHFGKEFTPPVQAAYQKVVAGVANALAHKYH

NCCN(CCN)/[N+]([O-])=N/O [diethylenetriaine-NONOate]
degradation of the half-life of the produced nitric oxide: 85%
